According to US11344510B2, “Arylcyclohexylamine derivatives and their use in the treatment of psychiatric disorders” (Gilgamesh Pharmaceuticals, Inc., priority 2019, dated 2022):

Experiments:
[1] = RLM stability (Low Activity); type: in vitro ADME, Sprague Dawley rats; details: male, Sprague Dawley, rat, liver microsomes, pH 7.4, Condition 1 (Low Activity), 0.50 mg protein/mL
Protocol: (§1) RLM Stability (Low Activity). Pooled RLM from male Sprague Dawley rats (XenoTech R1000) were used. Microsomal incubations were carried out in multi-well plates. Liver microsomal incubation medium consisted of PBS (100 mM, pH 7.4), MgCl2 (1 mM), and NADPH (1 mM), with 0.50 mg of liver microsomal protein per mL. Control incubations were performed by replacing the NADPH-cofactor system with PBS. Test compounds (1 μM, final solvent concentration 1.0%) were incubated with microsomes at 37° C. with constant shaking. Six time points over 60 minutes were analyzed, with 60 μL aliquots of the reaction mixture being drawn at each time point. The reaction aliquots were stopped by adding 180 μL of cold (4° C.) acetonitrile containing 200 ng/mL tolbutamide and 200 ng/mL labetalol as internal standards (IS), followed by shaking for 10 minutes, and then protein sedimentation by centrifugation at 4000 rpm for 20 minutes at 4° C. Supernatant samples (80 μL) were diluted with water (240 μL) and analyzed for parent compound remaining using a fit-for-purpose liquid chromatography-tandem mass spectrometry (LC-MS/MS) method.
(§2) Data Analysis. The elimination constant (kel), half-life (t1/2) and intrinsic clearance (Clint) were determined in a plot of […] versus time, using linear regression analysis.

[2] = MLM stability (Low Activity); type: in vitro ADME, CD-1 mice; details: male, CD-1, mouse, liver microsomes, pH 7.4, Condition 1 (Low Activity), 0.50 mg protein/mL
Protocol: as §1, with “MLM” for “RLM”, “CD-1 mice” for “Sprague Dawley rats”, “M1000)” for “R1000)”
as §2

[3] = target: T1, serotonin transporter (SERT) (Homo sapiens, UniProt P31645); experiment: Fluorescent substrate uptake inhibition, SERT; type: cell-based; details: for inhibition at 10 µM: HEK293 cells expressing SERT
T1 construct: expressed in transfected cells; host or cells: HEK293
T1 sequence (P31645 whole entry, species assumed): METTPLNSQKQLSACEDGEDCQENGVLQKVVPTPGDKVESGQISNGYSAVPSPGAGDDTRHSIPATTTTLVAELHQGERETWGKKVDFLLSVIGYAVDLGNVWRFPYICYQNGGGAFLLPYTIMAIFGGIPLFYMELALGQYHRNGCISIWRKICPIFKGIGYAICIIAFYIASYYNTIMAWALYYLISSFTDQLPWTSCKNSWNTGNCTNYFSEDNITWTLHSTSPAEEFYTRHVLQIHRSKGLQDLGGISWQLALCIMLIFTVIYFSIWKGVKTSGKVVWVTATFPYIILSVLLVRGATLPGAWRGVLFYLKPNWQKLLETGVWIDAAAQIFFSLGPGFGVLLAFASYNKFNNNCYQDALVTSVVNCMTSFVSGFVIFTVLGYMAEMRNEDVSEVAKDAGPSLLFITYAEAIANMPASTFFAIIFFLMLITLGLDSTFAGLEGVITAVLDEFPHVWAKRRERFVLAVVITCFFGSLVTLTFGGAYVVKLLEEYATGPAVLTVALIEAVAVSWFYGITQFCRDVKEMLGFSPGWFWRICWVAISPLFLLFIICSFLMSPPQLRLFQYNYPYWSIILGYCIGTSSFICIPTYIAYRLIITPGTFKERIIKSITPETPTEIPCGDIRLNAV
Protocol: (§3) Uptake Inhibition. The ability of test compounds to block monoamine uptake by SERT, NET, DAT, and VMAT2 was determined using the Neurotransmitter Transporter Uptake Assay Kit manufactured by Molecular Devices (Cat #R8173). Briefly, stably transfected cells expressing the MAT of interest (HEK293 cells for SERT and NET; CHO cells for DAT) were grown and plated into 384-well plates at a concentration of 20,000 cells per well. Plates were then incubated for 16-20 h at 37° C. and 5% CO2. The medium was then aspirated and replaced with 25 μL of assay buffer (20 mM HEPES in HBSS, containing 0.1% BSA) containing the test compounds at the appropriate concentrations. Plates were then centrifuged at 300 rpm for 15 s and then incubated at 37° C. for 30 minutes. At this time, 25 μL of the proprietary fluorescent dye solution was added, the plates were incubated at 37° C. for 60 minutes, and then fluorescence was quantified on a plate reader (excitation wavelength=440 nm, emission wavelength=520 nm). The proprietary dye solution contains a mixture of 1) a fluorescent dye that mimics the endogenous substrates of MATs and is thereby actively transported to the intracellular compartment in the absence of an inhibitor and 2) a masking dye that inhibits the fluorescence of dye 1 in the extracellular compartment. Therefore, the overall fluorescence of the system increases as the fluorescent dye is transported into the cells.

[4] = target: T2, dopamine transporter (DAT) (Homo sapiens, UniProt Q01959); experiment: Fluorescent substrate uptake inhibition, DAT; type: cell-based; details: for inhibition at 10 µM: CHO cells expressing DAT
T2 construct: expressed in transfected cells; host or cells: CHO (uptake)
T2 sequence (Q01959 whole entry, species assumed): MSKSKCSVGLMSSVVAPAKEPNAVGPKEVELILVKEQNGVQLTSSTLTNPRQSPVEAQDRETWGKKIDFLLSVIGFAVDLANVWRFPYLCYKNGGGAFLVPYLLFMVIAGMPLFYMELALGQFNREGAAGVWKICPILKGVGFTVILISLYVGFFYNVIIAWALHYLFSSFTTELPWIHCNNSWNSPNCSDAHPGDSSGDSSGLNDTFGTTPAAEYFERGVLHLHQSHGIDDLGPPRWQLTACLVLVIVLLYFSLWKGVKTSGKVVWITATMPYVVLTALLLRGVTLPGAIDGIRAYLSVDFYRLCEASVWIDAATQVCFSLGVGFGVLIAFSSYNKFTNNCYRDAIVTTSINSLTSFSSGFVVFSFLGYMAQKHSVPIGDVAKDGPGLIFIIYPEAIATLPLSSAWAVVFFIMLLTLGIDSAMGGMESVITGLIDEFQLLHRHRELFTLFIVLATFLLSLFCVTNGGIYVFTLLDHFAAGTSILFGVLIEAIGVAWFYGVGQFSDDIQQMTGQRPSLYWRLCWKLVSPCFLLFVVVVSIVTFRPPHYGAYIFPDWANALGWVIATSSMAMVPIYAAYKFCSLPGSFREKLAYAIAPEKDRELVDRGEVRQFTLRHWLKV
Protocol: as §3

[5] = target: T3, norepinephrine transporter (NET) (Homo sapiens, UniProt P23975); experiment: Fluorescent substrate uptake inhibition, NET; type: cell-based; details: for inhibition at 10 µM: HEK293 cells expressing NET
T3 construct: expressed in transfected cells; host or cells: HEK293
T3 sequence (P23975 whole entry, species assumed): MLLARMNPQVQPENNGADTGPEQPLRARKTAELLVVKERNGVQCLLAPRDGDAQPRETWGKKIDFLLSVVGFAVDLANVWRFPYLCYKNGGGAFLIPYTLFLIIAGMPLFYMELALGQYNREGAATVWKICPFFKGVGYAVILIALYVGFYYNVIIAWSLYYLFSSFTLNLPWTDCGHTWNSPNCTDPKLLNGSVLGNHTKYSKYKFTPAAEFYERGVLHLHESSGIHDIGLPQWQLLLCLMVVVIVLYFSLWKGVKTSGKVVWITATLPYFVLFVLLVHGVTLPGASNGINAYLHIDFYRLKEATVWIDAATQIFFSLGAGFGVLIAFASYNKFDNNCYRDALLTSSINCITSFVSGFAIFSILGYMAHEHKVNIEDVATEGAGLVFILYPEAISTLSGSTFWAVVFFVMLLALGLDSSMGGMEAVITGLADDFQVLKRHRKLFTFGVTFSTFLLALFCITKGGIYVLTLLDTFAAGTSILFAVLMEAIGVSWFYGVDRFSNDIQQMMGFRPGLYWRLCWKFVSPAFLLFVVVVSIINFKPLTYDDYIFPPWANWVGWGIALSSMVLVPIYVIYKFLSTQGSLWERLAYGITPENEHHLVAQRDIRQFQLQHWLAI
Protocol: as §3

[6] = HLM stability (Low Activity, Alternative Method); type: in vitro ADME; details: both sexes, human, liver microsomes, pH 7.4, Condition 1 column, values marked *: Low Activity, 0.50 mg protein/mL
Protocol: as §1, with “HLM” for “RLM”, “Activity, Alternative Method).” for “Activity).”, “from adult” for “from”, “and female donors (Corning 452117)” for “Sprague Dawley rats (XenoTech R1000)”
as §2

[7] = target: MK-801 binding site of the N-methyl-D-aspartate receptor (NMDAR); experiment: NMDAR radioligand binding with [3H]MK-801, Method B; design: species or system Sprague Dawley rat; details: MK-801 site, Method B, male Sprague Dawley rat cortex, 5.0 nM [3H]MK-801; read-out: NMDAR Ki ± SEM
Protocol: Radioligand Binding—Method B. Affinity of the test compounds for NMDAR was determined in radioligand binding experiments with [^3H]MK-801 by WuXi AppTec (Hong Kong) Limited, under the conditions described in Table 13.

[8] = target: T4, vesicular monoamine transporter 2 (VMAT2) (Homo sapiens, UniProt Q05940); experiment: Fluorescent substrate uptake inhibition, VMAT2; type: cell-based; details: for inhibition at 10 µM: transfected cells
T4 construct: expressed in transfected cells
T4 sequence (Q05940 whole entry, species assumed): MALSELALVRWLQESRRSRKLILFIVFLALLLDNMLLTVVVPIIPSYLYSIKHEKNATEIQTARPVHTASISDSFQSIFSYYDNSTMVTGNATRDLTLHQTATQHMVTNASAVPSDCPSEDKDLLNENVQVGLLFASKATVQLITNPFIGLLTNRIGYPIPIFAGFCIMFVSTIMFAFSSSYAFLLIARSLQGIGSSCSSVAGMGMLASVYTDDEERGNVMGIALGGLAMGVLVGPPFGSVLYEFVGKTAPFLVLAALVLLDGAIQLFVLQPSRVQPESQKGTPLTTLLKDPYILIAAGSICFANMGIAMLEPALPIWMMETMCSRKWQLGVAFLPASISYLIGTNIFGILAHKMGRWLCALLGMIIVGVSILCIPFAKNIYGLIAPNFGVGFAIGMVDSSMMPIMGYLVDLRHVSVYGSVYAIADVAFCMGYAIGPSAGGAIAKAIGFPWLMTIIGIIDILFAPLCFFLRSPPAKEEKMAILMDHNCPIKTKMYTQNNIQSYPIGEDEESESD
Protocol: as §3

[9] = HLM stability (High Activity); type: in vitro ADME; details: both sexes, human, liver microsomes, pH 7.4, Condition 2 (High Activity), 1.0 mg protein/mL
Protocol: (§4) HLM Stability (High Activity). Pooled HLM from adult male and female donors (XenoTech H0630) were used. Microsomal incubations were carried out in 96-well plates in 5 aliquots of 40 μL, each (one for each time point). Liver microsomal incubation medium consisted of PBS (100 mM, pH 7.4), MgCl2 (3.3 mM), NADPH (3 mM), glucose-6-phosphate (5.3 mM), and glucose-6-phosphate dehydrogenase (0.67 units/mL), with 1.0 mg of liver microsomal protein per mL. Control incubations were performed by replacing the NADPH-cofactor system with PBS. Test compounds (1 μM, final solvent concentration 1.6%) were incubated with microsomes at 37° C., shaking at 100 rpm. Incubations were performed in duplicate. Five time points over 60 minutes were analyzed. The reactions were stopped by adding 12 volumes of 90% acetonitrile-water to incubation aliquots, followed by protein sedimentation by centrifugation at 5500 rpm for 3 minutes. Supernatants were analyzed for parent compound remaining using a fit-for-purpose liquid chromatography-tandem mass spectrometry (LC-MS/MS) method, with authentic samples of each analyte used for identity confirmation.
as §2

[10] = MLM stability (High Activity); type: in vitro ADME, BALB/c mice; details: male, BALB/c, mouse, liver microsomes, pH 7.4, Condition 2 (High Activity), 1.0 mg protein/mL
Protocol: as §4, with “MLM” for “HLM”, “from” for “from adult”, “BALB/c mice” for “and female donors”, “M3000)” for “H0630)”, “μL” for “μL,”, “9” for “12”
as §2

In the case of `CNC1(c2cccc(C)c2)CCCCC1=O` (racemic) [Compound 23rac, 2-(methylamino)-2-(m-tolyl)cyclohexan-1-one], the half-life at 1 μM [1] is reported as 3.6 min, the microsomal CLint at 1 μM [1] is reported as 390 µL/min/mg and the half-life at 1 μM [2] is reported as 52.7 min. The microsomal CLint at 1 μM [2] was 26.3 µL/min/mg, the inhibition at 10 µM [3] was -1% and the inhibition at 10 µM [4] was 8.5%. For the same compound, the inhibition at 10 µM [5] was 8%, the half-life at 1 μM [6] was 133 min and the microsomal CLint at 1 μM [6] was 10.4 µL/min/mg. The Ki [7] was 4.6 µM and the inhibition at 10 µM [8] was 16%.

With `CN[C@@]1(c2ccccc2C)CCCCC1=O` [Compound 38R, (R)-2-(methylamino)-2-(o-tolyl)cyclohexan-1-one] the half-life at 1 μM [9] was 111 min, the microsomal CLint at 1 μM [9] was 6 µL/min/mg and the inhibition at 10 µM [3] was 41.5%. The inhibition at 10 µM [4] was -2.2%, the inhibition at 10 µM [5] was 20.3% and the Ki [7] was 0.74 µM. For the same compound, the inhibition at 10 µM [8] was 2.9%, the half-life at 1 μM [10] was 30 min and the microsomal CLint at 1 μM [10] was 23 µL/min/mg.

With `O=C1CCCC[C@@]1(NCCO)c1ccccc1` [Compound 30R, (R)-2-((2-hydroxyethyl)amino)-2-phenylcyclohexan-1-one] the half-life at 1 μM [9] was 23 min, the microsomal CLint at 1 μM [9] was 30 µL/min/mg and the inhibition at 10 µM [3] was 1.2%. For the same compound, the inhibition at 10 µM [4] was 8.5%, the inhibition at 10 µM [5] was 3.5% and the Ki [7] was > 23 µM. For the same compound, the inhibition at 10 µM [8] was 16.3%, the half-life at 1 μM [10] was 6.5 min and the microsomal CLint at 1 μM [10] was 106 µL/min/mg.

`O=C1CCCC[C@@]1(c1ccccc1)N1CCCC1` [Compound 27S, (S)-2-phenyl-2-(pyrrolidin-1-yl)cyclohexan-1-one] gave a half-life at 1 μM [1] of 53.7 min, a microsomal CLint at 1 μM [1] of 25.8 µL/min/mg and a half-life at 1 μM [2] of 41 min. It also gave a microsomal CLint at 1 μM [2] of 33.8 µL/min/mg, an IC50 [3] of 0.041 µM and an IC50 [4] of 10.9 µM. The IC50 [5] was 8.5 µM, the half-life at 1 μM [6] was > 145 min and the microsomal CLint at 1 μM [6] was < 9.6 µL/min/mg. The Ki [7] was 1.1 µM and the IC50 [8] was 19.3 µM.

Compound `Cc1ccc(C2(N)CCCCC2=O)cc1` (racemic) [Compound 120rac, 2-amino-2-(p-tolyl)cyclohexan-1-one] has a half-life at 1 μM [1] of 3.6 min, a microsomal CLint at 1 μM [1] of 380 µL/min/mg and a half-life at 1 μM [2] of 112 min. The microsomal CLint at 1 μM [2] was 12.4 µL/min/mg, the inhibition at 10 µM [3] was 27.5% and the inhibition at 10 µM [4] was 5.3%. The inhibition at 10 µM [5] was 7.1%, the half-life at 1 μM [6] was > 145 min and the microsomal CLint at 1 μM [6] was < 9.6 µL/min/mg. The Ki [7] was 23 µM and the inhibition at 10 µM [8] was 41%.

`CN[C@]1(c2ccccc2C)CCCCC1=O` [Compound 38S, (S)-2-(methylamino)-2-(o-tolyl)cyclohexan-1-one] gave a half-life at 1 μM [9] of 110 min, a microsomal CLint at 1 μM [9] of 6 µL/min/mg and an inhibition at 10 µM [3] of 39.7%. It also gave an inhibition at 10 µM [4] of 8.3%, an inhibition at 10 µM [5] of 2.7% and a Ki [7] of 0.24 µM. It also gave an inhibition at 10 µM [8] of -11.2%, a half-life at 1 μM [10] of 22.4 min and a microsomal CLint at 1 μM [10] of 31 µL/min/mg.

For `O=C1CCCC[C@]1(NCCF)c1ccccc1` [Compound 86S, (S)-2-((2-fluoroethyl)amino)-2-phenylcyclohexan-1-one], the half-life at 1 μM [9] was 61.9 min, the microsomal CLint at 1 μM [9] was 11 µL/min/mg and the inhibition at 10 µM [3] was 14.1%. It also gave an inhibition at 10 µM [4] of 20.8%, an inhibition at 10 µM [5] of 12.2% and a Ki [7] of 1.3 µM. It also gave an inhibition at 10 µM [8] of -5.5%, a half-life at 1 μM [10] of 8.5 min and a microsomal CLint at 1 μM [10] of 82 µL/min/mg.

`O=C1CCCC[C@]1(NCCO)c1ccccc1` [Compound 30S, (S)-2-((2-hydroxyethyl)amino)-2-phenylcyclohexan-1-one] showed a half-life at 1 μM [9] of 11.4 min, a microsomal CLint at 1 μM [9] of 61 µL/min/mg and an inhibition at 10 µM [3] of 51.9%. The inhibition at 10 µM [4] was 18.7%, the inhibition at 10 µM [5] was 22.3% and the Ki [7] was 23 µM. The inhibition at 10 µM [8] was 23.2%, the half-life at 1 μM [10] was 4.3 min and the microsomal CLint at 1 μM [10] was 162 µL/min/mg.

For `O=C1CCCC[C@@]1(NCCF)c1ccccc1` [Compound 86R, (R)-2-((2-fluoroethyl)amino)-2-phenylcyclohexan-1-one], the half-life at 1 μM [9] was 55.8 min, the microsomal CLint at 1 μM [9] was 12 µL/min/mg and the inhibition at 10 µM [3] was 7.1%. It also gave an inhibition at 10 µM [4] of 13.6%, an inhibition at 10 µM [5] of 11.4% and a Ki [7] of 7.1 µM. It also gave an inhibition at 10 µM [8] of -8.9%, a half-life at 1 μM [10] of 6.2 min and a microsomal CLint at 1 μM [10] of 113 µL/min/mg.
